According to US20240398784A1, “C-LINKED ISOQUINOLINE AMIDES AS LRRK2 INHIBITORS, PHARMACEUTICAL COMPOSITIONS, AND USES THEREOF” (Merck Sharp & Dohme LLC, priority 2021, published 2024):

These compounds were tested against LRRK2 G2019S (Homo sapiens, UniProt Q5S007, G2019S) (assay: LRRK2 G2019S Km ATP LanthaScreen assay). Details: read-out: LRRK2 pIC50 (converted).
Assay type: biochemical

LRRK2 G2019S, sequence (Q5S007 whole entry G2019S): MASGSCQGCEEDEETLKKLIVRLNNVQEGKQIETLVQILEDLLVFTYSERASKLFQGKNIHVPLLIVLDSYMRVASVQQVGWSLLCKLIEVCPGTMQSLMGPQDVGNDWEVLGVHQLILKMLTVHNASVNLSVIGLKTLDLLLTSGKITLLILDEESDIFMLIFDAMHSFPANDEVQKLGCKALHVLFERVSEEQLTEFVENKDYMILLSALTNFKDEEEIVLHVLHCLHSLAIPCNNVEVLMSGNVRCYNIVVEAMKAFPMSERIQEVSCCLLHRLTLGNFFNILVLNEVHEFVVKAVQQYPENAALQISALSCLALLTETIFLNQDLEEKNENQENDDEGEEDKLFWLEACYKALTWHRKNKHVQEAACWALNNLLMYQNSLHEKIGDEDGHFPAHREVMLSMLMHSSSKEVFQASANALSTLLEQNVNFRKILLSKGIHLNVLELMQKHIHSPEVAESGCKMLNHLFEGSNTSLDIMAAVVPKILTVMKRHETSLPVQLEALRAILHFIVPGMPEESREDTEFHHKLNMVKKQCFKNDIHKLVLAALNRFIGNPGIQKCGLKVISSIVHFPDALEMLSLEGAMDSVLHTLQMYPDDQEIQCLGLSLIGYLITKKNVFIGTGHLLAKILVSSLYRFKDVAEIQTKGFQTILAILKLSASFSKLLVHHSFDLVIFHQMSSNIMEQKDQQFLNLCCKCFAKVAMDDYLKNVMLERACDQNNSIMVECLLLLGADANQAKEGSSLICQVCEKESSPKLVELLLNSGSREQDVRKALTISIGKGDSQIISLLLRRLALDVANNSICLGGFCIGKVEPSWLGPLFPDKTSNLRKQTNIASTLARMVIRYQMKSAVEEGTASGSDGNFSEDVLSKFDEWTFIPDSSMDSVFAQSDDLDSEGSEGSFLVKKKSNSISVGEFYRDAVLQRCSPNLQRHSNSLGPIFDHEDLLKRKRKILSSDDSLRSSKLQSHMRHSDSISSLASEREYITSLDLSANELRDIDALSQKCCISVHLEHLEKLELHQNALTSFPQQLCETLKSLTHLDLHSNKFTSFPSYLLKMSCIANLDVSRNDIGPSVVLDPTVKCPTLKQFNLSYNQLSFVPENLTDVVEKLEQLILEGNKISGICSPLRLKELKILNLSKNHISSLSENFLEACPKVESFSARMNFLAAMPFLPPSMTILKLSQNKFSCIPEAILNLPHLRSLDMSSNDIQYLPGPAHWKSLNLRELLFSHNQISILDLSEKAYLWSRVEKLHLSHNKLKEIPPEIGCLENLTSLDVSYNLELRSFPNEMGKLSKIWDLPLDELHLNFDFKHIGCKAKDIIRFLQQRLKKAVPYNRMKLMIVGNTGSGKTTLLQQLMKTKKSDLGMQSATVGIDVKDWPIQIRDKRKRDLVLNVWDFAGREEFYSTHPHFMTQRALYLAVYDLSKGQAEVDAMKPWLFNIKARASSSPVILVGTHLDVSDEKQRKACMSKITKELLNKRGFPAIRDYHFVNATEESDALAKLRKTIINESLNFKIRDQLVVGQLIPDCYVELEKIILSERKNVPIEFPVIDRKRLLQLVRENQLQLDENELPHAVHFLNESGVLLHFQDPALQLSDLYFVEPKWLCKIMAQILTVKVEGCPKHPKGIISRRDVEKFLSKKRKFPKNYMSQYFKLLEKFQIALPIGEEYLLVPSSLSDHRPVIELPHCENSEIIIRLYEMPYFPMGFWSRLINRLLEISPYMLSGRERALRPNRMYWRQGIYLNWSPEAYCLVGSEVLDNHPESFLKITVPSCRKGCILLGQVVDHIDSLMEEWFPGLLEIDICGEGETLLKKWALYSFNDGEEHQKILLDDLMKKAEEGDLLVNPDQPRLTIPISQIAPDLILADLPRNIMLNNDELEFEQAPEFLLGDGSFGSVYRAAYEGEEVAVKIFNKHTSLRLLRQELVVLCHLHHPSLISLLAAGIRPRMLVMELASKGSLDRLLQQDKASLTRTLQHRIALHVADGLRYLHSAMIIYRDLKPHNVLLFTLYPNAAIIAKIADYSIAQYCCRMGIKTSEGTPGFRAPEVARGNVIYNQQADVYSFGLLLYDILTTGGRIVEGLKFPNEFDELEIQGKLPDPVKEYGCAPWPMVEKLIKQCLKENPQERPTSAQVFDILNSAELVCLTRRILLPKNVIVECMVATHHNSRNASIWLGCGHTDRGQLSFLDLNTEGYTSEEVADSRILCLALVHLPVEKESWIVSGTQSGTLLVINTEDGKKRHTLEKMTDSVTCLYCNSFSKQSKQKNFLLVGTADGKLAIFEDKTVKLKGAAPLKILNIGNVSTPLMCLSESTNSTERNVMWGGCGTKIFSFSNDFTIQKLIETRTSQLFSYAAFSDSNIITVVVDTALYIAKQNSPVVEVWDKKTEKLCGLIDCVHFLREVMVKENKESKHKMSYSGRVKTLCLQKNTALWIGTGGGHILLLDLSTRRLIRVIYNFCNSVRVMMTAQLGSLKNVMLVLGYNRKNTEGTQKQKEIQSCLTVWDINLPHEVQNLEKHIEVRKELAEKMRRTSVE

| IC50 [nM] | Compound |
| --- | --- |
| 2.45 | O=C(Nc1cc2cc(C3CCN(C4COC4)CC3)c(Cl)cc2cn1)[C@H]1C[C@H]1F [Ex-1.13, (1R,2R)-N-(7-chloro-6-(1-(oxetan-3-yl)piperidin-4-yl)isoquinolin-3-yl)-2-fluorocyclopropane-1-carboxamide] |
| 1.58 | Cc1cc2cnc(NC(=O)C3CC3C(F)F)cc2cc1C1CCN(C2(C)COCC2O)CC1 (stereo not drawn) [Ex-2.56] |
| 3.55 | CC1(C)C(C(=O)Nc2cc3cc(C4CCN(C5(C)COCC5O)CC4)c(Cl)cc3cn2)C1c1ccccn1 (single isomer, unassigned) [Ex-4.46, N-(7-chloro-6-(1-(4-hydroxy-3-methyltetrahydrofuran-3-yl)piperidin-4-yl)isoquinolin-3-yl)-2,2-dimethyl-3-(pyridin-2-yl)cyclopropane-1-carboxamide] |
| 1.17 | O=C(Nc1cc2cc(C3CCN(C4COCC4O)CC3)c(Cl)cc2cn1)C1CC1 (single isomer, unassigned) [Ex-12.3, N-(7-chloro-6-(1-(4-hydroxytetrahydrofuran-3-yl)piperidin-4-yl)isoquinolin-3-yl)cyclopropanecarboxamide] |
| 2.34 | N#CC1(c2ccc3cnc(NC(=O)C4CC4c4ccncc4)cc3c2)CC12CC2 (stereo not drawn) [Ex-2.42] |
| 38.9 | Cc1cc2cnc(NC(=O)C3CC3c3ccccn3)cc2cc1C1CCN(C2(C)COCC2F)CC1 (single isomer, unassigned) [Ex-13.2, (1R,2R or 1S,2S)-N-(6-(1-((3R,4R or 3S,4S)-4-fluoro-3-methyltetrahydrofuran-3-yl)piperidin-4-yl)-7-methylisoquinolin-3-yl)-2-(pyridin-2-yl)cyclopropane-1-carboxamide] |
| 0.24 | CC1(N2CCC(c3cc4cc(NC(=O)Cc5ccccn5)ncc4cc3Cl)CC2)COCC1O (stereo not drawn) [Ex-3.6] |
| 4.47 | CC(C)(O)C1CC1C(=O)Nc1cc2cc(C3CCN(C4(C)COC4)CC3)c(Cl)cc2cn1 (single isomer, unassigned) [Ex-22.1, (1R,2R or 1S,2S)-N-(7-chloro-6-(1-(3-methyloxetan-3-yl)piperidin-4-yl)isoquinolin-3-yl)-2-(2-hydroxypropan-2-yl)cyclopropanecarboxamide] |
| 15.1 | CC1C(C(=O)Nc2cc3cc(C4CCN(C5(C)COCC5O)CC4)c(Cl)cc3cn2)C1c1ccccn1 (single isomer, unassigned) [Ex-4.52, N-(7-chloro-6-(1-(4-hydroxy-3-methyltetrahydrofuran-3-yl)piperidin-4-yl)isoquinolin-3-yl)-2-methyl-3-(pyridin-2-yl)cyclopropane-1-carboxamide] |
| 0.2 | COC1COCC1N1CCC(c2cc3cc(NC(=O)C4CC45CCOCC5)ncc3cc2Cl)CC1 (single isomer, unassigned) [Ex-6.52, N-(7-chloro-6-(1-(4-methoxytetrahydrofuran-3-yl)piperidin-4-yl)isoquinolin-3-yl)-6-oxaspiro[2.5]octane-1-carboxamide] |
| 117 | CCC1C(C(=O)Nc2cc3cc(C4CC45CC5)c(Cl)cc3cn2)C1c1cnn(C)c1 (stereo not drawn) [Ex-2.99] |
| 8.91 | CC1CC1C(=O)Nc1cc2cc(C3CCN(C4COC4)CC3)c(Cl)cc2cn1 (single isomer, unassigned) [Ex-9.6, N-(7-chloro-6-(1-(oxetan-3-yl)piperidin-4-yl)isoquinolin-3-yl)-2-methylcyclopropane-1-carboxamide] |
| 1.86 | CC1C(C(=O)Nc2cc3cc(C4CCN(C5COC5)CC4)c(Cl)cc3cn2)C1(F)F (racemic) [Ex-1.6, Rac-N-(7-chloro-6-(1-(oxetan-3-yl)piperidin-4-yl)isoquinolin-3-yl)-2,2-difluoro-3-methylcyclopropane-1-carboxamide] |
| 0.661 | CC(C(=O)Nc1cc2cc(C3CCN(C4(C)CCOC4O)CC3)c(Cl)cc2cn1)C1CCOCC1 (stereo not drawn) [Ex-2.104] |
| 240 | CC1(c2ccccn2)CC1C(=O)Nc1cc2cc(C3CCN(C4(C)COCC4O)CC3)c(Cl)cc2cn1 (stereo not drawn) [Ex-2.91] |

More lines, now with the values behind:

| Compound | IC50 [nM] |
| --- | --- |
| CC1(C)CC(C(=O)Nc2cc3cc(C4CCN(C5(C)CCOC5)CC4)c(Cl)cc3cn2)CCO1 (single isomer, unassigned) [Ex-6.45, N-(7-chloro-6-(1-(3-methyltetrahydrofuran-3-yl)piperidin-4-yl)isoquinolin-3-yl)-2,2-dimethyltetrahydro-2H-pyran-4-carboxamide] | 2.14 |
| CC1(N2CCC(c3cc4cc(NC(=O)C5CC56CC6)ncc4cc3Cl)CC2)COCC1O (single isomer, unassigned) [Ex-4.6, N-(7-chloro-6-(1-(4-hydroxy-3-methyltetrahydrofuran-3-yl)piperidin-4-yl)isoquinolin-3-yl)spiro[2.2]pentane-1-carboxamide] | 0.148 |
| CC1(N2CCC(c3cc4cc(NC(=O)C5CCC6(CCC6)OC5)ncc4cc3Cl)CC2)COCC1O (single isomer, unassigned) [Ex-4.24, N-(7-chloro-6-(1-(4-hydroxy-3-methyltetrahydrofuran-3-yl)piperidin-4-yl)isoquinolin-3-yl)-5-oxaspiro[3.5]nonane-7-carboxamide] | 0.692 |
| CCC1C(C(=O)Nc2cc3cc(C4(C#N)CC45CC5)ccc3cn2)C1c1cnn(C)c1 (single isomer, unassigned) [Ex-1.25, (1R,3R or 1S,3S)-N-(6-((R or S)-1-cyanospiro[2.2]pentan-1-yl)isoquinolin-3-yl)-2-ethyl-3-(1-methyl-1H-pyrazol-4-yl)cyclopropane-1-carboxamide] | 0.661 |
| CC(C)(O)C1CC1C(=O)Nc1cc2cc(C3CCN(C4(C)CCOC4)CC3)c(Cl)cc2cn1 (single isomer, unassigned) [Ex-6.14, N-(7-chloro-6-(1-(3-methyltetrahydrofuran-3-yl)piperidin-4-yl)isoquinolin-3-yl)-2-(2-hydroxypropan-2-yl)cyclopropane-1-carboxamide] | 2.69 |
| N#CC1(c2cc3cc(NC(=O)C4CC4)ncc3cc2F)CC12CC2 (single isomer, unassigned) [Ex-18.10, (R or S)-N-(6-(1-cyanospiro[2.2]pentan-1-yl)-7-fluoroisoquinolin-3-yl)cyclopropanecarboxamide] | 12.6 |
| CC1(C)CC1(C#N)c1ccc2cnc(NC(=O)C3CC3)cc2c1 (single isomer, unassigned) [Ex-18.3, (R or S)-N-(6-(1-cyano-2,2-dimethylcyclopropyl)isoquinolin-3-yl)cyclopropanecarboxamide] | 24 |
| N#CC1(c2ccc3cnc(NC(=O)C4CC4c4ccccn4)cc3c2)CC12CC2 (stereo not drawn) [Ex-2.39] | 2.29 |
| CC(C)c1cc2cc(NC(=O)C3CC3c3cnn(C)c3)ncc2cc1Cl (stereo not drawn) [Ex-21.1, N-(7-chloro-6-isopropylisoquinolin-3-yl)-2-(1-methyl-1H-pyrazol-4-yl)cyclopropane-1-carboxamide] | 0.0813 |
| O=C(Nc1cc2cc(C3C4CCOCC43)c(Cl)cc2cn1)C1CC12CCOCC2 (single isomer, unassigned) [Ex-9.23, N-(6-(3-oxabicyclo[4.1.0]heptan-7-yl)-7-chloroisoquinolin-3-yl)-6-oxaspiro[2.5]octane-1-carboxamide] | 19.1 |
| O=C(Nc1cc2cc(C3CCC(N4CC(F)C4)CC3)c(Cl)cc2cn1)C1CC12CCOCC2 (single isomer, unassigned) [Ex-11.5, N-(7-chloro-6-(4-(3-fluoroazetidin-1-yl)cyclohexyl)isoquinolin-3-yl)-6-oxaspiro[2.5]octane-1-carboxamide] | 186 |
| CC1(N2CCC(c3cc4cc(NC(=O)C5CCC(C(F)(F)F)OC5)ncc4cc3Cl)CC2)COCC1O (stereo not drawn) [Ex-2.59] | 5.13 |
